From ChEMBL document CHEMBL4804281, “STK4 inhibitors for treatment of hematologic malignancies” (2020)
Calls of active or inactive are those of the source. No cut-off for these calls is given here.

Tests used:
[1] = molecular target: Misshapen-like kinase 1 (Homo sapiens) (UniProt Q8N4C8); test: Inhibition of MINK in human NCI-H929 cells by mass spectroscopic analysis; format: cell-based; conditions: concentration not given here
[2] = molecular target: Protein kinase C zeta type (Homo sapiens) (UniProt Q05513); test: Inhibition of PKCz in human NCI-H929 cells at 10 uM by mass spectroscopic analysis relative to control; format: cell-based
Protein kinase C zeta type (Homo sapiens), sequence (Q05513 whole entry): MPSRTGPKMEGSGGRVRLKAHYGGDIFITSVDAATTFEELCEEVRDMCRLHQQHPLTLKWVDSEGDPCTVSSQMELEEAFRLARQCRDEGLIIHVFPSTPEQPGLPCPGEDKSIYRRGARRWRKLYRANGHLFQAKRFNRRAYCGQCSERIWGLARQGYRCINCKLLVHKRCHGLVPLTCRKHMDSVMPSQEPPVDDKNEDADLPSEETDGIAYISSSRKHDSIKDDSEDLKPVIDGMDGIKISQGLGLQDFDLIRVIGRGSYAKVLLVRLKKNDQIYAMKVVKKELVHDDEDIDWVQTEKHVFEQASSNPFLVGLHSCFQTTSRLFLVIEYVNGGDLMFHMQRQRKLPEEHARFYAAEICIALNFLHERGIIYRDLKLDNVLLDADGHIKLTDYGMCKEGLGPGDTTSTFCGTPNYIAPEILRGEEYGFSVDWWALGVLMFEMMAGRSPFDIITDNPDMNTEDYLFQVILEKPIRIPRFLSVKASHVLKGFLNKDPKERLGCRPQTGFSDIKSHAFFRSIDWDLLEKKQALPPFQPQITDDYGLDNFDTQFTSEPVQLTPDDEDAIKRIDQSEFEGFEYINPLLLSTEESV

NCI-H929 = test: Upregulation of YAP1 protein level in human NCI-H929 cells at 1 uM measured after 24 hrs by Western blot analysis; format: functional, cell-based
MM1.S = test: Induction of apoptosis in human MM1.S cells assessed as necrotic cells measured after 48 hrs by annevxinV/FITC-propidium iodide staining based flow cytometry (reference value: 0.19 %); format: functional

Misshapen-like kinase 1 (Homo sapiens), sequence (Q8N4C8 whole entry, looked up): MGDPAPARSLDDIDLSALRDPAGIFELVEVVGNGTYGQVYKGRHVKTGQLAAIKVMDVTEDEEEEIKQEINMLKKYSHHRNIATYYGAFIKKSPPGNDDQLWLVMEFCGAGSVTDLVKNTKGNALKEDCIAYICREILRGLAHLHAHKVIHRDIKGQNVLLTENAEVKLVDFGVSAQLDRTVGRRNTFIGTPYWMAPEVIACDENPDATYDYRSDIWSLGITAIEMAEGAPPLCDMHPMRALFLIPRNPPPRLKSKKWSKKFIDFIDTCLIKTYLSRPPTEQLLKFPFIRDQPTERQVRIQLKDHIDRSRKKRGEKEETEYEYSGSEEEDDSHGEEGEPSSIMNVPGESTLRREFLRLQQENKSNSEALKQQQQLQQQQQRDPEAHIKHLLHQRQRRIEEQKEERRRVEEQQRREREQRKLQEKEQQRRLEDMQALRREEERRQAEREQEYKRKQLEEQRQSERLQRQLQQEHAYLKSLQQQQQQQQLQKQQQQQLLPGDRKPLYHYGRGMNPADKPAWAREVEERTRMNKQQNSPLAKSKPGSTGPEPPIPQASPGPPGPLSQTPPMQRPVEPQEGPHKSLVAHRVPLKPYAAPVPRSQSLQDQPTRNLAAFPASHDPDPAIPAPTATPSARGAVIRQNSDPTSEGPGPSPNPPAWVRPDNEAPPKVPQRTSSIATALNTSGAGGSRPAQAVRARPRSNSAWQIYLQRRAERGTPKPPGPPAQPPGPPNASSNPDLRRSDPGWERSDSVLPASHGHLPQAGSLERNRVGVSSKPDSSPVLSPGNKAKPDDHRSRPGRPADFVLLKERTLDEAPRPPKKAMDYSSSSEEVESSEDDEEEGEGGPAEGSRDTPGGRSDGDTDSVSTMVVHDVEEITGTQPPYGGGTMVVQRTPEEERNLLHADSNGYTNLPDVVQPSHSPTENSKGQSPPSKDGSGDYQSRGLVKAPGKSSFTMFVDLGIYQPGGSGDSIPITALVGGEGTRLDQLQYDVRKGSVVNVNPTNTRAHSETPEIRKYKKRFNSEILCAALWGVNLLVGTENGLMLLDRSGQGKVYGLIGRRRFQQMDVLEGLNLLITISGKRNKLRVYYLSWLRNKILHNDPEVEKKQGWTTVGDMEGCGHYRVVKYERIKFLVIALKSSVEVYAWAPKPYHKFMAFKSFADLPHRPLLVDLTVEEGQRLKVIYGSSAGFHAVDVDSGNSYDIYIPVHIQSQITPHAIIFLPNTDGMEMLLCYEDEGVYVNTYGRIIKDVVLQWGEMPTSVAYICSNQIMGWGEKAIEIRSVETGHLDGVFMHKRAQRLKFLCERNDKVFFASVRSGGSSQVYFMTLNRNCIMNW

Row | inhibition [1] [%] | inhibition [2] [%] | SMILES | Activity (NCI-H929) | Activity (MM1.S) [%]
1 | 0 | 50 | COc1cc(NS(=O)(=O)C2CC2)ccc1-c1cnc(N)c(-c2ccc3c(c2)CCNC3=O)c1 | – | –
2 | – | – | Nc1ncc(-c2cccc([N+](=O)[O-])c2F)cc1-c1ccc2c(c1)CCNC2=O | Active | 29.41
